The nature of the data set: Penetration study, Franz diffusion apparatus, human skin (*). Format: in vitro ADME. Particulars: Example 8; for Reduction of penetration on addition of the compound (in words): results similar to octanoic acid (reduces penetration by 50%).

Procedure: The following Penetration Studies carried out in the following manner. […] A normal saline solution is added to the lower diffusion cell, abutting the subcutaneous side of the skin. The test composition (comprising a solution of active or actives added to the carrier at the indicated formulation in a conventional manner by thoroughly mixing) is added to the diffusion cell abutting the epidermal side of the skin.
This cell assembly is kept at a constant temperature of about 31° C. At appropriate or desired intervals (these are the time designations given in the following examples) each diffusion cell assembly is opened and the diffusate from the cell abutting the subcutaneous side of the skin is withdrawn. Drug actives in a diffusate is measured using standard analytical techniques. Each trial is run on a separate sample of skin.

Consider `CCCCCCCCCCCCCCCCO` [cetyl alcohol], for which the “Reduction of penetration on addition of the compound (in words)” value was “Substantially similar results”. The same measure, in the same setting: then `CCCCCCCCCC(=O)O` [decanoic acid], with “Substantially similar results”.

Consider `CCCCCCCC(=O)O` [octanoic acid], for which, where the note is “added to 1% Triamcinolone in Propylene Glycol + 2% C14 OH, human skin, 0-72 hrs.”, the “Reduction of penetration on addition of the compound” value stood at 50%. As for `CCCCCCCCCCCCCCCCCCO` [stearyl alcohol], the “Reduction of penetration on addition of the compound (in words)” value was “Substantially similar results”.

(Values after US4537776A, “Penetrating topical pharmaceutical compositions containing N-(2-hydroxyethyl) pyrrolidone” (priority 1983, dated 1985).)
